According to patent publication US20220041627A1, “PRODRUGS OF ANTI-CANCER AND ANTI-AUTOIMMUNE DISEASES THERAPEUTIC AGENTS, AND METHODS OF MAKING AND USE THEREOF” (UNIVERSITY OF MARYLAND, BALTIMORE, priority 2018, published 2022):

Tests used:
Assay type in all cases: cell-based, human
[1] = system: CCRF-CEM; assay: NCI-60 growth inhibition, CCRF-CEM; conditions: Leukemia CCRF-CEM, 48 h
Description: (§1) The anticancer effects of compounds 1a-1b against 60 human cancer cell lines (the Developmental Therapeutics Program of NCI) were studied. The cell lines were derived from different cancer types including leukemia, non-small-cell lung cancer, colon cancer, CNS cancer, melanoma, ovarian cancer, renal cancer, prostate cancer, and breast cancer (Table 1; the assay protocol can be found at: https://dtp.cancer.gov/default.htm). Compound 1a caused over 50% growth inhibition for most tested cell lines. […] Without wishing to be bound by any particular theory, it is believed that the differences in the anticancer effects between compounds 1a and 1b may be due to the more favorable cell membrane permeability of the boronic ester 1a.

[2] = system: MOLT-4; assay: NCI-60 growth inhibition, MOLT-4
Description: as §1

[3] = system: A549/ATCC; assay: NCI-60 growth inhibition, A549/ATCC; conditions: Non-Small Cell lung Cancer A549/ATCC, 48 h
Description: as §1

[4] = system: EKVX; assay: NCI-60 growth inhibition, EKVX; conditions: Non-Small Cell lung Cancer EKVX, 48 h
Description: as §1

[5] = system: HOP-62; assay: NCI-60 growth inhibition, HOP-62
Description: as §1

[6] = system: HOP-92; assay: NCI-60 growth inhibition, HOP-92
Description: as §1

[7] = system: NCI-H522; assay: NCI-60 growth inhibition, NCI-H522
Description: as §1

[8] = system: HCT-116; assay: NCI-60 growth inhibition, HCT-116
Description: as §1

[9] = system: HCT-15; assay: NCI-60 growth inhibition, HCT-15
Description: as §1

[10] = system: KM12; assay: NCI-60 growth inhibition, KM12
Description: as §1

[11] = system: SF-295; assay: NCI-60 growth inhibition, SF-295
Description: as §1

[12] = system: SNB-19; assay: NCI-60 growth inhibition, SNB-19
Description: as §1

[13] = system: SNB-75; assay: NCI-60 growth inhibition, SNB-75
Description: as §1

[14] = system: SK-MEL-5; assay: NCI-60 growth inhibition, SK-MEL-5
Description: as §1

[15] = system: SN12C; assay: NCI-60 growth inhibition, SN12C; conditions: Renal Cancer SN12C, 48 h
Description: as §1

[16] = system: TK-10; assay: NCI-60 growth inhibition, TK-10
Description: as §1

[17] = system: HS 578T; assay: NCI-60 growth inhibition, HS 578T; conditions: Breast Cancer HS 578T, 48 h
Description: as §1

[18] = system: MCF7 cells pretreated with the ROS scavenger N-Acetyl-Cysteine (NAC); assay: Cell viability of MCF7 cells pretreated with ROS scavenger NAC; conditions: 10 mM NAC, pre-incubation 2 hours
Experimental: FIG. 3 illustrates the effect of ROS on the activation of 1a-b. Cell viability assay of MCF7 cancer cells treated with varying concentrations of 1a-b in the presence of 10 mM NAC. Pre-incubation with this ROS scavenger was carried out for 2 hours. Data are presented as mean SD, n=4.
Cell Counting Kit-8 (CCK8, Dojingo) was used to carry out the cytotoxicity assessment of the prodrugs. Seeded cells were treated with varying compound concentrations for 48-72 h and the CCK8 kit was used to measure the cytotoxicity. For NAC experiments, this ROS scavenger was pre-incubated with the cells for 2 h and then co-incubated with the prodrugs for additional 48 hours unless otherwise noted.
The anticancer effects of new compounds 1a and 1b were tested using the breast cancer MCF7 cells and normal MEC1 cells (FIGS. 2A and 2B). […] These differential killing results highlight the specificity of new prodrugs 1a-1b for cancer cells over normal cells. […] To further verify the role of ROS in the drug release process, the MTT assays was performed, using MCF7 cells pretreated with the ROS scavenger N-Acetyl-Cysteine (NAC).

[19] = system: PARP1; assay: Western blot of PARP1 in MCF7 cells; conditions: 48 h; for expression level of PARP1: compared to vehicle-treated cells; for level of cleavage of PARP1: compared to vehicle-treated controls
Experimental: FIGS. 4A and 4B illustrate the effect of compounds 1a-1b in apoptosis. FIG. 4A: immunofluorescence of DNA cleavage protein γH2Ax was enhanced by using 5-FU and prodrugs 1a-1b. FIG. 4B: immunoblot analysis of MCF-7 cells treated with 5-FU, prodrugs 1a-1b for apoptosis markers PARP1 and Caspase 3. The cells were treated for 48 h with the indicated concentrations of compounds.
Western Blot Analysis. Treated cells were washed once with PBS and lysed with RIPA lysis buffer (Santa Cruz Biotechnology, SCBT, #24948) supplemented with sodium orthovanadate, PMSF, protease and phosphatase inhibitor cocktails (Sigma Aldrich). Cell lysates were centrifuge for 15 min at 14,000×g and the supernatant was used for immunoblotting. Protein concentration was normalized for the samples and resolved on a 10-13% SDS-PAGE gel. Following transfer to nitrocellulose membrane, specific mouse primary antibodies from SCBT (PARP1 #sc-8007, caspase 3 #sc-7272) and Cell Signaling (cleaved PARP1 #9541, cleaved caspase-3 #9664) were added and incubated overnight. Secondary antibodies corresponding to the host of the primary antibodies was further incubated with the membrane and washed three times to remove excess antibodies. Odyssey Fc Imaging System (LI-COR, Lincoln, Nebr.) was used to quantify the chemiluminescent of the proteins.
To understand the mechanism of action of prodrugs 1a-1b, the impact of the treatment of compounds 1a-1b on the γH2AX formation in MCF7 cells were determined using immunofluorescence assay (FIG. 4A). […] The effects of prodrugs 1a-1b on the PARP1 and caspase 3 cleavage in MCF7 cells were also determined using Western blots assays (FIG. 4B). […] Treatment of 5-FU and compounds 1a-1b increased the levels of cleavage of PARP1 and caspase 3 in MCF7 cells, as compared with that in the vehicle-treated controls. Therefore, prodrugs 1a-1b, similar to 5-FU, can induce MCF7 cell apoptosis, which might contribute to their pharmacological actions.

Structure (SMILES): CC1(C)OB(c2ccc(Cn3cc(F)c(=O)[nH]c3=O)cc2)OC1(C)C [Compound 1a, 5-Fluoro-1-(4-(4,4,5,5-tetramethyl-1,3,2-dioxaborolan-2-yl)benzyl)pyrimidine-2,4(1H,3H)-dione]
- inhibition at 50 µM ([1]; Homo sapiens): 62%
- inhibition at 50 µM ([2]; Homo sapiens, Leukemia MOLT-4, 48 h): 45%
- inhibition at 50 µM ([3]; Homo sapiens): 24%
- inhibition at 50 µM ([4]; Homo sapiens): 28%
- inhibition at 50 µM ([5]; Homo sapiens, Non-Small Cell lung Cancer HOP-62, 48 h): 36%
- inhibition at 50 µM ([6]; Homo sapiens, Non-Small Cell lung Cancer HOP-92, 48 h): 67%
- inhibition at 50 µM ([7]; Homo sapiens, Non-Small Cell lung Cancer NCI-H522, 48 h): 90%
- inhibition at 50 µM ([8]; Homo sapiens, Colon Cancer HCT-116, 48 h): 71%
- inhibition at 50 µM ([9]; Homo sapiens, Colon Cancer HCT-15, 48 h): 32%
- inhibition at 50 µM ([10]; Homo sapiens, Colon Cancer KM12, 48 h): 74%
- inhibition at 50 µM ([11]; Homo sapiens, CNS Cancer SF-295, 48 h): 14%
- inhibition at 50 µM ([12]; Homo sapiens, CNS Cancer SNB-19, 48 h): 29%
- inhibition at 50 µM ([13]; Homo sapiens, CNS Cancer SNB-75, 48 h): 62%
- inhibition at 50 µM ([14]; Homo sapiens, Melanoma SK-MEL-5, 48 h): 61%
- inhibition at 50 µM ([15]; Homo sapiens): 19%
- inhibition at 50 µM ([16]; Homo sapiens, Renal Cancer TK-10, 48 h): 21%
- inhibition at 50 µM ([17]; Homo sapiens): 63%
- anticancer effects upon pretreatment of NAC [18]: decreased significantly
- expression level of PARP1 [19]: significantly reduced
- level of cleavage of PARP1 [19]: increased

Structure (SMILES): O=c1[nH]c(=O)n(Cc2ccc(B(O)O)cc2)cc1F [Compound 1b, (4-((5-Fluoro-2,4-dioxo-3,4-dihydropyrimidin-I(2H)-yl)methyl)phenyl)boronic acid]
- Growth Inhibition (%) ([1]; 50 μM): 7%
- Growth Inhibition (%) ([2]; Leukemia MOLT-4, 50 μM, 48 h): 5%
- Growth Inhibition (%) ([3]; 50 μM): 4%
- Growth Inhibition (%) ([4]; 50 μM): 16%
- Growth Inhibition (%) ([5]; Non-Small Cell lung Cancer HOP-62, 50 μM, 48 h): 10%
- Growth Inhibition (%) ([6]; Non-Small Cell lung Cancer HOP-92, 50 μM, 48 h): 35%
- Growth Inhibition (%) ([7]; Non-Small Cell lung Cancer NCI-H522, 50 μM, 48 h): 44%
- Growth Inhibition (%) ([8]; Colon Cancer HCT-116, 50 μM, 48 h): 18%
- Growth Inhibition (%) ([9]; Colon Cancer HCT-15, 50 μM, 48 h): 10%
- Growth Inhibition (%) ([10]; Colon Cancer KM12, 50 μM, 48 h): 20%
- Growth Inhibition (%) ([11]; CNS Cancer SF-295, 50 μM, 48 h): 5%
- Growth Inhibition (%) ([12]; CNS Cancer SNB-19, 50 μM, 48 h): 11%
- Growth Inhibition (%) ([13]; CNS Cancer SNB-75, 50 μM, 48 h): 15%
- Growth Inhibition (%) ([14]; Melanoma SK-MEL-5, 50 μM, 48 h): 10%
- Growth Inhibition (%) ([15]; 50 μM): 7%
- Growth Inhibition (%) ([16]; Renal Cancer TK-10, 50 μM, 48 h): 20%
- Growth Inhibition (%) ([17]; 50 μM): 26%
- anticancer effects upon pretreatment of NAC [18]: decreased significantly
- expression level of PARP1 [19]: significantly reduced
- level of cleavage of PARP1 [19]: increased
